From patent US9421209B2, “Kinase modulators” (Rhizen Pharmaceuticals SA, priority 2009, dated 2016)

Columns and labels:
P110 δ/Pi3K δ = P110 δ/Pi3K δ (Homo sapiens, UniProt O00329); assay: Fluorescent (HTRF) determination of PI3K enzyme activity, δ isoform; type: biochemical; parameters: inhibition: dose or concentration left out as unconfirmed
Method in brief: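 HTRF kit detecting PIP3 formed from PIP2 by human PI3Kδ, at room temperature. Reaction started with 400 μM ATP (addition concentration) for 30 min, then stopped, and detection mix incubated 6–18 h in the dark. Percent inhibition taken against blank and enzyme controls, and IC50 fitted.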

P110β = P110β (Homo sapiens, UniProt P42338); assay: Fluorescent (HTRF) determination of PI3K enzyme activity, β isoform; type: biochemical
Chain of P110β (P42338 whole entry, canonical isoform): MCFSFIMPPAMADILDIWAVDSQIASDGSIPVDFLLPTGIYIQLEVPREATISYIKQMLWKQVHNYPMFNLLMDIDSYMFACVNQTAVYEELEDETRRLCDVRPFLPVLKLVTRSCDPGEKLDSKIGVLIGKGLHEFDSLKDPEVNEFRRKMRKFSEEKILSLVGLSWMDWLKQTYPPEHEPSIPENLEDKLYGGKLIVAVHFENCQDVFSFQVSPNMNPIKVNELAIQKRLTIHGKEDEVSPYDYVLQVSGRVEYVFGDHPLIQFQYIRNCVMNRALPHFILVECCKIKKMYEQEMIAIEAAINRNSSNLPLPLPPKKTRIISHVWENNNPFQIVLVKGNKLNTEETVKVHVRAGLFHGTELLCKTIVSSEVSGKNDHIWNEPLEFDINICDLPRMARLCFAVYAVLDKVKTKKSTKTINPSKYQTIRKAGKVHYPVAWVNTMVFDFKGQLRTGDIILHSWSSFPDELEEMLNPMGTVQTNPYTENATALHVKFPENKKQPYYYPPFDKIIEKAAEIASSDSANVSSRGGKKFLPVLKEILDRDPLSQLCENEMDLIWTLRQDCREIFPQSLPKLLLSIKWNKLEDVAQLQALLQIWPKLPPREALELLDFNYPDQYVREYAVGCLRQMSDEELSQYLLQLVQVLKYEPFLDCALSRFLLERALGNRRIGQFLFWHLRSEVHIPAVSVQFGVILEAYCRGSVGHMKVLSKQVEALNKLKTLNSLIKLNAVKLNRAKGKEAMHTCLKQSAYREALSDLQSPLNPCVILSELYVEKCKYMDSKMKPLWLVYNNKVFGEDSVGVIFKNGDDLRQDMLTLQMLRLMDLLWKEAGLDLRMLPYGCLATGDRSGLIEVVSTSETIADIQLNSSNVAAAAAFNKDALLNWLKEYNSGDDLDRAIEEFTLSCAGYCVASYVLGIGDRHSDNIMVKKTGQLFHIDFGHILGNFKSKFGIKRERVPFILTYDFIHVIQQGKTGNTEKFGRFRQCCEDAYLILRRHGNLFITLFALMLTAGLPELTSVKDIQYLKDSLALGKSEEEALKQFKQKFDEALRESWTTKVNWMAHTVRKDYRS
Chain of P110β (P27986 whole entry partner, canonical isoform): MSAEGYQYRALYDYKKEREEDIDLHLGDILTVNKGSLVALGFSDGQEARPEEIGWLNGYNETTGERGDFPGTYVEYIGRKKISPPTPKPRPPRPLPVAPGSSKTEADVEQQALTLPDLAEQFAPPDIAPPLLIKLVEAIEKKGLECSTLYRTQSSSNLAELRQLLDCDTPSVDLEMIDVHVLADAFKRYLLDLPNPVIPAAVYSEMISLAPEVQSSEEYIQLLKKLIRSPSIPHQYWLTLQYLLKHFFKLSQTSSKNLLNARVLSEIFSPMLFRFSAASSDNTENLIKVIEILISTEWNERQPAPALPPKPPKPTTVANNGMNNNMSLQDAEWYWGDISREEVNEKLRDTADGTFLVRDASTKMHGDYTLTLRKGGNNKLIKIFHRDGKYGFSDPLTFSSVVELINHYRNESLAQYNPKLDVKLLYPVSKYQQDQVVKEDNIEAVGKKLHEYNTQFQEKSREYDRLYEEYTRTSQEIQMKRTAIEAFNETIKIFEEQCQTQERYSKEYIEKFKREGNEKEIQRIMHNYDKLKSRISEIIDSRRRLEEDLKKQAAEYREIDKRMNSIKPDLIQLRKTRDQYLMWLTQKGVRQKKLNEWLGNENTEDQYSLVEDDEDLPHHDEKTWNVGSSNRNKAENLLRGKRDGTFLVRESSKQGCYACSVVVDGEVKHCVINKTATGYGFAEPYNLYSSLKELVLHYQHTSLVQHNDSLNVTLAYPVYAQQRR
Source text: Assay 1: Fluorescent determination of PI3Kinase Kinase enzyme activity
Phosphoinositide 3 kinases (PI3K) belong to a class of lipid kinases that play a critical role in the regulation of several key cellular processes. The PI3K are capable of phosphorylating the 3-hydroxy position of phosphoinositols thereby generating second messengers involved in downstream signalling events. The homogenous time resolved fluorescence (HTRF) assay allows detection of 3,4,5-triphosphate (PIP3) formed as a result of phosphorylation of phosphotidylinositol 4,5-biphosphate (PIP2) by PI3K isoforms such as α, β, γ or δ.
PI3K isoform activity for α, β, γ or δ was determined using a PI3K human HTRF™ Assay Kit (Millipore, Billerica, Mass.) with modifications. All incubations were carried out at room temperature. Briefly, 0.5 μl of 40× inhibitor (in 100% DMSO) or 100% DMSO were added to each well of a 384-well black plate (Greiner Bio-One, Monroe, N.C.) containing 14.5 μl 1× reaction buffer/PIP2 (10 mM MgCl2, 5 mM DTT, 1.38 μM PIP2) mix with or without enzyme and incubated for 10 min. After the initial incubation, 5 μl/well of 400 μM ATP was added and incubated for an additional 30 minutes. Reaction was terminated by adding 5 μl/well stop solution (Millipore, Billerica, Mass.). Five microliters of detection mix (Millipore, Billerica, Mass.) were then added to each well and was incubated for 6-18 h in the dark. HRTF ratio was measured on a microplate reader (BMG Labtech., Germany) at an excitation wavelength of 337 nm and emission wavelengths of 665 and 620 nm with an integration time of […]. Data were analyzed using Graphpad Prism (Graphpad software; San Diego Calif.) for IC50 determination. Percent inhibition was calculated based on the values for the blank and enzyme controls. The results are provided below in Table 2 & 3.

Chain of P110 δ/Pi3K δ (O00329 whole entry, canonical isoform): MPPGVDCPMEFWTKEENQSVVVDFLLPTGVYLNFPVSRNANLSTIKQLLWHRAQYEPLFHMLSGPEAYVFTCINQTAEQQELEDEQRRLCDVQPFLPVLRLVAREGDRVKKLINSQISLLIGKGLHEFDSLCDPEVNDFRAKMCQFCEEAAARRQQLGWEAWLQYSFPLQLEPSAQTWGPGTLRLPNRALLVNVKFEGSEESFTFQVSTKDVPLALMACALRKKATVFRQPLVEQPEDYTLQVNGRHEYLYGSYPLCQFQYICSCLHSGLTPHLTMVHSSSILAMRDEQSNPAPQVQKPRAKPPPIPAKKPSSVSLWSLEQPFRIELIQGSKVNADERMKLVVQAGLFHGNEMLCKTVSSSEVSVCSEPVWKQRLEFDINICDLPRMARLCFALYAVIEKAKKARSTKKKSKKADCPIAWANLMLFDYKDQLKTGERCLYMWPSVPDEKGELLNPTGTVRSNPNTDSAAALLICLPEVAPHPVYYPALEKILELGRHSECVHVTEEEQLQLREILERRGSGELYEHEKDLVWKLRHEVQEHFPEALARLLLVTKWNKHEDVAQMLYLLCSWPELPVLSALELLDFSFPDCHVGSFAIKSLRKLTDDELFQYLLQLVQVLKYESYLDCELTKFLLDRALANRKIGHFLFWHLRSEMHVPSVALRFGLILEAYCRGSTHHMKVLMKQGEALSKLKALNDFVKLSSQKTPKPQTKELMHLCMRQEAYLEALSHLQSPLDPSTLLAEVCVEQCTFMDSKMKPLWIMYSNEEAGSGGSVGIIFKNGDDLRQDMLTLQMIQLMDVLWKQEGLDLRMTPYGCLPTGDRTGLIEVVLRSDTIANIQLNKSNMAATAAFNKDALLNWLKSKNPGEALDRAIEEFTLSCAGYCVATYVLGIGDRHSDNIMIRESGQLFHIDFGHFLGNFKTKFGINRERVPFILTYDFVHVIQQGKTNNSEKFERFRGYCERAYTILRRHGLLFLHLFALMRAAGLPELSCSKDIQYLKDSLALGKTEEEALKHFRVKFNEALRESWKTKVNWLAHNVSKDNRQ
Chain of P110 δ/Pi3K δ (P27986 whole entry partner, canonical isoform): as the sequence (P27986 whole entry partner, canonical isoform) above

SMILES	IC50 (P110 δ/Pi3K δ; read-out: P110 δ/ Pi3K δ IC 50 nM)	% inhibition (1 μM) P110β (P110β; 1 µM)	melting point	inhibition at 1 µM (P110β)	inhibition (P110 δ/Pi3K δ)
Cc1n[nH]c2cc(-c3nn([C@H](C)c4oc5ccccc5c(=O)c4-c4cccc(F)c4)c4ncnc(N)c34)ccc12 (single isomer, unassigned) [Example 129, (−)-2-(1-(4-amino-3-(3-methyl-1H-indazol-6-yl)-1H-pyrazolo[3,4-d]pyrimidin-1-yl)ethyl)-3-(3-fluorophenyl)-4H-chromen-4-one]	> 500 nM	++ (++ is less than equal to 50% inhibition but more than equal to 25% at 1 μM)	157 to 160 °C		
O=c1c(-c2ccc(F)cc2)c(CN2CCOCC2)oc2ccc(Br)cc12 [Example 17, 6-Bromo-3-(4-fluorophenyl)-2-(morpholinomethyl)-4H-chromen-4-one]				< 25%	
CC(c1oc2ccccc2c(=O)c1-c1cccc(F)c1)n1nc(-c2csc(C=O)c2)c2c(N)ncnc21 (stereo not drawn) [Example 113, 4-(4-amino-1-(1-(3-(3-fluorophenyl)-4-oxo-4H-chromen-2-yl)ethyl)-1H-pyrazolo[3,4-d]pyrimidin-3-yl)thiophene-2-carbaldehyde]			192 to 195 °C	< 25%	50 to 100%
CC(c1oc2ccccc2c(=O)c1-c1cccc(F)c1)n1nc(-c2csc(CO)c2)c2c(N)ncnc21 (stereo not drawn) [Example 114, 2-(1-(4-amino-3-(5-(hydroxymethyl)thiophen-3-yl)-1H-pyrazolo[3,4-d]pyrimidin-1-yl)ethyl)-3-(3-fluorophenyl)-4H-chromen-4-one]			154 to 156 °C	< 25%	50 to 100%
COc1c(F)cc(-c2nn(C(C)c3oc4ccccc4c(=O)c3-c3cccc(F)c3)c3ncnc(N)c23)cc1F (stereo not drawn) [Example 126, 2-(1-(4-amino-3-(3,5-difluoro-4-methoxyphenyl)-1H-pyrazolo[3,4-d]pyrimidin-1-yl)ethyl)-3-(3-fluorophenyl)-4H-chromen-4-one]				< 25%	
COc1c(F)cc(-c2nn(Cc3oc4ccc(F)cc4c(=O)c3-c3cccc(F)c3)c3ncnc(N)c23)cc1F [Example 127, 2-((4-amino-3-(3,5-difluoro-4-methoxyphenyl)-1H-pyrazolo[3,4-d]pyrimidin-1-yl)methyl)-6-fluoro-3-(3-fluorophenyl)-4H-chromen-4-one]				50 to 100%	
CC(c1oc2ccccc2c(=O)c1-c1cccc(F)c1)n1nc(-c2cccc3c2oc2ccccc23)c2c(N)ncnc21 (stereo not drawn) [Example 138, 2-(1-(4-amino-3-(dibenzo[b,d]furan-4-yl)-1H-pyrazolo[3,4-d]pyrimidin-1-yl)ethyl)-3-(3-fluorophenyl)-4H-chromen-4-one]			238 to 240 °C	25 to 50%	
CC(c1oc2ccccc2c(=O)c1-c1cccc(F)c1)n1nc(-c2ccc(F)nc2)c2c(N)ncnc21 (stereo not drawn) [Example 159, 2-(1-(4-amino-3-(6-fluoropyridin-3-yl)-1H-pyrazolo[3,4-d]pyrimidin-1-yl)ethyl)-3-(3-fluorophenyl)-4H-chromen-4-one]			203 to 206 °C		< 50%
COCc1cccc(-c2nn(C(C)c3oc4ccccc4c(=O)c3-c3cccc(F)c3)c3ncnc(N)c23)c1 (stereo not drawn) [Example 161, 2-(1-(4-amino-3-(3-(methoxymethyl)phenyl)-1H-pyrazolo[3,4-d]pyrimidin-1-yl)ethyl)-3-(3-fluorophenyl)-4H-chromen-4-one]			167 to 170 °C		< 50%
CC(c1oc2ccccc2c(=O)c1-c1cccc(F)c1)n1nc(-c2ccc3cc(O)ccc3c2)c2c(N)ncnc21 (stereo not drawn) [Example 162, 2-(1-(4-amino-3-(6-hydroxynaphthalen-2-yl)-1H-pyrazolo[3,4-d]pyrimidin-1-yl)ethyl)-3-(3-fluorophenyl)-4H-chromen-4-one]			281 to 285 °C		50 to 100%
CC(C)Oc1cccc(-c2nn(C(C)c3oc4ccccc4c(=O)c3-c3cccc(F)c3)c3ncnc(N)c23)c1 (stereo not drawn) [Example 163, 2-(1-(4-amino-3-(3-isopropoxyphenyl)-1H-pyrazolo[3,4-d]pyrimidin-1-yl)ethyl)-3-(3-fluorophenyl)-4H-chromen-4-one]			153 to 157 °C		< 50%
COc1ccc(NC(C)c2oc3ccc(F)cc3c(=O)c2-c2cccc(F)c2)cc1 (stereo not drawn) [Example 165, 6-Fluoro-3-(3-fluorophenyl)-2-(1-(4-methoxyphenylamino)ethyl)-4H-chromen-4-one]			152 to 156 °C		< 50%
CC(c1oc2ccccc2c(=O)c1-c1cccc(F)c1)n1ccc2c(Cl)ncnc21 (stereo not drawn) [Example 166, 2-(1-(4-Chloro-7H-pyrrolo[2,3-d]pyrimidin-7-yl)ethyl)-3-(3-fluorophenyl)-4H-chromen-4-one]			71 to 75 °C		< 50%
CC(c1oc2ccccc2c(=O)c1-c1cccc(F)c1)n1ncc2c(Cl)ccnc21 (stereo not drawn) [Example 167, 2-(1-(4-Chloro-1H-pyrazolo[3,4-b]pyridin-1-yl)ethyl)-3-(3-fluorophenyl)-4H-chromen-4-one]			173 to 176 °C		< 50%
CC(c1oc2ccccc2c(=O)c1-c1cccc(F)c1)n1ncc2c(Cl)ncnc21 (stereo not drawn) [Example 168, 2-(1-(4-Chloro-1H-pyrazolo[3,4-d]pyrimidin-1-yl)ethyl)-3-(3-fluorophenyl)-4H-chromen-4-one]			197 to 201 °C		< 50%
CC(c1oc2ccccc2c(=O)c1-c1cccc(F)c1)n1ccc2ncnc(Cl)c21 (stereo not drawn) [Example 169, 2-(1-(4-Chloro-5H-pyrrolo[3,2-d]pyrimidin-5-yl)ethyl)-3-(3-fluorophenyl)-4H-chromen-4-one]			166 to 168 °C		< 50%
Cc1nn(C)c2cc(-c3nn(C(C)c4oc5ccccc5c(=O)c4-c4cccc(F)c4)c4ncnc(N)c34)ccc12 (stereo not drawn) [Example 170, 2-(1-(4-amino-3-(1,3-dimethyl-1H-indazol-6-yl)-1H-pyrazolo[3,4-d]pyrimidin-1-yl)ethyl)-3-(3-fluorophenyl)-4H-chromen-4-one]			270 to 272 °C		50 to 100%
Cc1c2ccc(-c3nn(C(C)c4oc5ccccc5c(=O)c4-c4cccc(F)c4)c4ncnc(N)c34)cc2nn1C (stereo not drawn) [Example 171, 2-(1-(4-amino-3-(2,3-dimethyl-2H-indazol-6-yl)-1H-pyrazolo[3,4-d]pyrimidin-1-yl)ethyl)-3-(3-fluorophenyl)-4H-chromen-4-one]			269 to 274 °C		< 50%
COc1ccc2cc(-c3nn(C(C)c4oc5ccccc5c(=O)c4-c4cccc(F)c4)c4ncnc(N)c34)ccc2c1 (stereo not drawn) [Example 172, 2-(1-(4-amino-3-(6-methoxynaphthalen-2-yl)-1H-pyrazolo[3,4-d]pyrimidin-1-yl)ethyl)-3-(3-fluorophenyl)-4H-chromen-4-one]			285 to 287 °C		< 50%
CC(c1oc2ccccc2c(=O)c1-c1cccc(F)c1)n1nc(-c2csc3ccccc23)c2c(N)ncnc21 (stereo not drawn) [Example 173, 2-(1-(4-amino-3-(benzo[b]thiophen-3-yl)-1H-pyrazolo[3,4-d]pyrimidin-1-yl)ethyl)-3-(3-fluorophenyl)-4H-chromen-4-one]			226 to 229 °C		50 to 100%
CC(c1oc2ccccc2c(=O)c1-c1cccc(F)c1)n1nc(-c2cccc(C(=O)NC3CC3)c2)c2c(N)ncnc21 (stereo not drawn) [Example 176, 3-(4-amino-1-(1-(3-(3-fluorophenyl)-4-oxo-4H-chromen-2-yl)ethyl)-1H-pyrazolo[3,4-d]pyrimidin-3-yl)-N-cyclopropylbenzamide]			127 to 132 °C		< 50%
CC(c1oc2ccccc2c(=O)c1-c1cccc(F)c1)n1nc(-c2cccc(C(=O)N3CCOCC3)c2)c2c(N)ncnc21 (stereo not drawn) [Example 177, 2-(1-(4-amino-3-(3-(morpholine-4-carbonyl)phenyl)-1H-pyrazolo[3,4-d]pyrimidin-1-yl)ethyl)-3-(3-fluorophenyl)-4H-chromen-4-one]			104 to 106 °C		< 50%
CC(c1oc2ccccc2c(=O)c1-c1cccc(F)c1)n1nc(-c2cccc(OC(F)F)c2)c2c(N)ncnc21 (stereo not drawn) [Example 178, 2-(1-(4-amino-3-(3-(difluoromethoxy)phenyl)-1H-pyrazolo[3,4-d]pyrimidin-1-yl)ethyl)-3-(3-fluorophenyl)-4H-chromen-4-one]			176 to 179 °C		50 to 100%
CC(c1oc2ccccc2c(=O)c1-c1cccc(F)c1)n1nc(-c2ccc(C=O)o2)c2c(N)ncnc21 (stereo not drawn) [Example 179, 5-(4-amino-1-(1-(3-(3-fluorophenyl)-4-oxo-4H-chromen-2-yl)ethyl)-1H-pyrazolo[3,4-d]pyrimidin-3-yl)furan-2-carbaldehyde]			215 to 217 °C		50 to 100%
